Each structure is given as a SMILES string.

Data set [1] deals with SKOV-3 ovarian cell-line derived xenograft. The experiment in a line: SKOV-3 xenograft model, Compound 1 and carboplatin. The format is in vivo, nude mice. The note with it: for Tumor Volume Day 14: in mm³ (unit assumed). The method, then: SKOV-3 is an ovarian cell-line derived xenograft. Ten week old female nude mice (Taconic Farms, Inc) were inoculated subcutaneously in flank (cell suspension) with 4.0×10^6 SKOV-3 cells suspended in serum free DMEM+Matrigel. When the mean tumor volume reached approximately 200 mm^3, the animals were randomized into 12 treatment groups (n=5/group).
(§1) Carboplatin (Teva Pharmaceuticals) is formulated in 0.9% saline and administered by IP injection once weekly (QW) at 25, 50, 60, and 75 mg/kg. The once weekly schedule is also described as every 7 days (Q7D).
(§2) Compound 1 [((1R,2R,3S,4R)-2,3-dihydroxy-4-(2-(3-(trifluoromethylthio)-phenyl)pyrazolo[1,5-a]pyrimidin-7-ylamino)cyclopentyl)methyl sulfamate] is formulated in 10-20% HPbCD in sterile water and administered intravenously (IV) or subcutaneously (SC) on a BIW (twice/week schedule; Monday and Thursday or Tuesday and Friday) for either 2-4 weeks.
(§3) Tumors were measured twice weekly using vernier calipers. Tumor volumes were calculated using the standard formula V=W^2×L/2,). When mean tumor volumes reached approximately 200 mm^3 for PHTX-24C, 220 mm^3 for PHTX-Lu132, 150 mm^3 for CTG-0256, 260 mm^3 for CTG-0486, 185 mm^3 for PHTX-17C, 260 mm^3 for CTG-0165, 150 mm^3 for PHTX-14B in the study of Compound 1 and paclitaxel, 180 mm^3 for PHTX-14B in the study of Compound 1 and docetaxel, 200 mm^3 for SKOV-3, 220 mm^3 for PHTX-02B in the study of Compound 1 and docetaxel, 250 mm^3 for PHTX-02B in the study of Compound 1 and paclitaxel, 195 mm^3 for CTG-0159, 180 mm^3 for CTG-0012 or 150 mm^3 for Calu-6, mice were randomized into groups of n=5-7/arm as described in the tables below, and injected with vehicle, Compound 1 or agents (docetaxel, paclitaxel, oxaliplatin, cisplatin or carboplatin), or the combination of Compound 1 plus one of the agents, at various doses and schedules as described in tables below. Tumor size and body weight were measured approximately twice a week for the duration of the study. Mice are euthanized when their tumor volume reached 10% of their body weight, or when the average tumor volume of a treatment or control group reached approximately 2000 mm^3. Tumor growth continued to be monitored after the dosing period in some studies. Average tumor volume is reported as a function of time for selected arms of selected studies in the Figures.
(§4) Measurements from day 0 to day 14, day 19, day 21, or day 28 are analyzed as specified in Tables below. All tumor volumes have a value of 1 added to them before log10 transformation. For each animal, the log tumor volume at day 0 is subtracted from the log tumor volume on the subsequent days. This difference vs. time is used to calculate an area under the curve (AUC) for each animal using the trapezoid rule. […] The synergy score for the combination of agents A and B is defined as
(§5) 100*(mean(AUCAB)−mean(AUCA)−mean(AUCB)+mean(AUCctl))/mean(AUCctl):
(§6) where AUCAB, AUCA, AUCB, and AUCctl are the AUC values for animals in the combination group, the A group, the B group, and the control group, respectively. The standard error of the synergy score is computed based on the variation in the AUC values among the animals. […] If the P-value is above 0.05, then the combination is considered to be additive. If the P-value is below 0.05, and the synergy score is less than zero, then the combination is considered to be synergistic.

The test system of data set [2] is PHTX-132Lu non-small cell lung xenograft.
From the text: The PHTX-132Lu non-small cell lung xenograft model was established from a patient-derived tumor collected during surgery from a person with lung cancer (Poorly Differentiated Adenocarcinoma). PHTX-132Lu tumor fragments (approximately 2×2×3 mm^3) are implanted into the subcutaneous space in the right dorsal flank of female CB-17 SCID mice (age 10 weeks, Charles River Laboratory, Wilmington, Mass.) using a 13-gauge trocar. When the mean tumor volume reached approximately 220 mm^3, the animals were randomized into 12 treatment groups (n=5/group).
as §1, §2, §3, §4, §5, §6

Data set [3] deals with CTG-0256 human ovarian xenograft. The experiment in a line: CTG-0256 xenograft model, Compound 1 and carboplatin. Format: in vivo, Mus musculus/nu/nu mice.
From the text: The CTG-0256 model of human ovarian xenograft model was established from a patient-derived tumor collected during surgery at primary site from a person with ovarian cancer (serous adenocarcinoma with resistant response to carboplatin or paclitaxel). CTG-0256 tumor fragments (approximately 2×2×3 mm^3) were implanted into the subcutaneous space in the right dorsal flank of female Mus musculus/nu/nu mice (age 6-9 weeks, Harlan Laboratories, Madison, Wis.) using a 13-gauge trocar. When the mean tumor volume reached approximately 150 mm^3, the animals were randomized into 7 treatment groups (n=7/group).
as §1, §2, §3, §4, §5, §6

The test system of data set [4] is CTG-0486 human ovarian xenograft. Format: in vivo.
From the text: The CTG-0486 model of human ovarian xenograft model was established from a patient-derived tumor collected during surgery from a person with ovarian cancer (serous adenocarcinoma, metastases to the small bowel). CTG-0486 tumor fragments (approximately 2×2×3 mm^3) are implanted into the subcutaneous space in the right dorsal flank of female Mus musculus/nu/nu mice (age 6-9 weeks, Harlan Laboratories, Madison, Wis., USA) using a 13-gauge trocar needle. When the mean tumor volume reached approximately 260 mm3, the animals were randomized into 8 treatment groups (n=5/group).
[…] The once weekly schedule is also described as every 7 days (Q7D).
as §2, §3, §4, §5, §6

Data set [5] concerns PHTX-14B breast xenograft. Briefly: PHTX-14B xenograft model, Compound 1 and paclitaxel. Format: in vivo, Balb/c Nude Mice. To be noted: for Tumor Volume Day 28: in mm³ (unit assumed). As for the experimental part:
(§7) Paclitaxel (Bristol-Myers Squibb Company) is formulated in 0.9% saline and administered by intravenous injection (IV) on every 4 days (Q4D) or once weekly (QW) at 10 and 20 mg/kg. […] Tumors were measured twice weekly using vernier calipers.

The subject of data set [6] is CTG-0012 human primary triple negative breast cancer model. Briefly: CTG-0012 xenograft model, Compound 1 and paclitaxel. The format is in vivo, Mus musculus/nu/nu mice. As for the experimental part: as §7
Data set [7] relates to PHTX-02B breast xenograft. The experiment in a line: PHTX-02B xenograft model, Compound 1 and paclitaxel. The format is in vivo, SCID-NOD mice. The note with it: for Tumor Volume Day 19: in mm³ (unit assumed). As for the experimental part: as §7
The test system of data set [8] is CTG-0165 human lung NSCLC xenograft. Briefly: CTG-0165 xenograft model, Compound 1 and cisplatin. Format: in vivo, Mus musculus/nu/nu mice. The method, then:
CTG-0165 tumor fragments (approximately 2×2×3 mm^3) were implanted into the subcutaneous space in the right dorsal flank of female Mus musculus/nu/nu mice (age 6-9 weeks, Harlan Laboratories, Madison, Wis., USA) using a 13-gauge trocar. When the mean tumor volume reached approximately 260 mm^3, the animals were randomized into 8 treatment groups (n=5/group).
Cisplatin (Teva Pharmaceuticals) is formulated in 0.9% saline and administered by IV injection once weekly (QW) at 7.5 mg/kg. The once weekly schedule is also described as every 7 days (Q7D).
as §2, §3, §4, §5, §6

The test system of data set [9] is PHTX-02B breast xenograft. The experiment in a line: PHTX-02B xenograft model, Compound 1 and docetaxel. Format: in vivo, SCID-NOD mice. To be noted: for Tumor Volume Day 21: in mm³ (unit assumed). The method, then: (§8) Docetaxel (Henry Schein, Inc., Pittsburgh Pa.) is formulated in 0.9% saline and administered by intravenous injection (IV) once weekly (QW) at 5 mg/kg or 10 mg/kg. […] Tumors were measured twice weekly using vernier calipers.

The test system of data set [10] is CTG-0159 human lung NSCLC xenograft. The experiment in a line: CTG-0159 xenograft model, Compound 1 and docetaxel. Format: in vivo, Mus musculus/nu/nu mice. The note with it: 10 mg/kg docetaxel QWx3 IV; in mm³ (unit assumed). As for the experimental part:
as §8

The subject of data set [11] is Calu-6 non-small cell lung cancer xenograft. The experiment in a line: Calu-6 xenograft model, Compound 1 and docetaxel. Format: in vivo, nude mice. To be noted: for Tumor Volume Day 21: in mm³ (unit assumed). The method, then:
Calu-6 is a non-small cell lung cancer cell-lined derived xenograft model. Nine week old female nude mice (Taconic Farms, Inc) were inoculated subcutaneously in the flank (cell suspension) with 4.0×10^6 Calu-6 cells suspended in serum free MEM. […] Docetaxel (Henry Schein, Inc., Pittsburgh Pa.) is formulated in 0.9% saline and administered by intravenous injection (IV) once weekly (QW) at 5 mg/kg or 10 mg/kg. […] Tumors were measured twice weekly using vernier calipers.

Data set [12] deals with PHTX-14B breast xenograft. Briefly: PHTX-14B xenograft model, Compound 1 and docetaxel. The format is in vivo, nude mice. The note with it: for Tumor Volume Day 28: in mm³ (unit assumed). As for the experimental part: as §8
The mark [13] stands for this setting: single agent paclitaxel IV at 10 mg/kg Q4D for 3 weeks.
Setting [14] is: single agent docetaxel 5 and 10 mg/kg IV QW.

Turning to `N.N.O=C([O-])C1(C(=O)[O-])CCC1.[Pt+2]` [carboplatin, reference compound], the entries for the “Tumor Volume Day 14” value in data set [1] (25 mg/kg carboplatin Q7Dx2 IP) and in [1] (75 mg/kg carboplatin Q7Dx2 IP) were 932.8 and 798.5, respectively. Besides, the “anti-tumor activity compared to vehicle control” value in data set [1] (single agent carboplatin 25 and 75 mg/kg IP Q7D) is “modest anti-tumor activity”; in data set [2] (single agent carboplatin 25 mg/kg IP Q7D), “modest anti-tumor activity”; in data set [3] (single agent carboplatin IP at 50 mg/kg Q7D) it was “modest to weak anti-tumor activity”; in [4] (single agent carboplatin IP at 60 mg/kg Q7D for 3 weeks), “modest to strong anti-tumor activity”. Besides, the “Tumor Volume Day 21” value in data set [2] (25 mg/kg carboplatin Q7Dx3 IP, in mm³ (unit assumed)) is recorded as 727; in [4] (60 mg/kg carboplatin Q7Dx3 IV, in mm³ (unit assumed)), 400.6. For the same molecule, the tolerability result in data set [2] (75 mg/kg carboplatin Q7D×3 as single agent (study group 2)) is given as “not tolerated”. Further, the “Volume Tumor Day 14” value in data set [3] (50 mg/kg carboplatin Q7Dx2 IP, in mm³ (unit assumed)) is listed as 1898.1.

Turning to `CC(=O)O[C@H]1C(=O)[C@@]2(C)[C@H]([C@H](OC(=O)c3ccccc3)[C@]3(O)C[C@H](OC(=O)[C@H](O)[C@@H](NC(=O)c4ccccc4)c4ccccc4)C(C)=C1C3(C)C)[C@]1(OC(C)=O)CO[C@@H]1C[C@@H]2O` [paclitaxel, reference compound], the “Tumor Volume Day 28” value in data set [5] (10 mg/kg paclitaxel Q7Dx4 IV) came to 584.4; in data set [5] (20 mg/kg paclitaxel Q7Dx4 IV) it was 283.6. For the same molecule, the anti-tumor activity entry in data set [5] (paclitaxel 20 mg/kg IV Q7D for 4 weeks) and in data set [7] (paclitaxel IV at 20 mg/kg Q4D for 3 weeks) was “strong anti-tumor activity” each time. In addition, the “anti-tumor activity compared to vehicle control” value in data set [5] (single agent paclitaxel 10 mg/kg IV Q7D for 4 weeks) is recorded as “modest anti-tumor activity”; in [6] (setting [13]), “modest to strong anti-tumor activity”; in [7] (setting [13]) it was “minimal to modest anti-tumor activity”. Moreover, the “Tumor Volume Day 21” value in data set [6] (10 mg/kg paclitaxel Q4Dx3 IV, in mm³ (unit assumed)) is 731.1. For the same molecule, the results for the “Tumor Volume Day 19” value in data set [7] (10 mg/kg paclitaxel Q4Dx3 IV) and in data set [7] (20 mg/kg paclitaxel Q4Dx3 IV) were 1093.5 and 245.2, respectively.

Consider `N.N.[Cl][Pt][Cl]` [cisplatin, reference compound], for which the “Tumor Volume Day 21” value in data set [8] (7.5 mg/kg cisplatin QWx3 IV, in mm³ (unit assumed)) was found to be 489.3. Further, in [8] (single agent cisplatin 7.5 mg/kg Q7D), the “anti-tumor activity compared to vehicle control” value is recorded as “modest to weak anti-tumor activity”.

With `CC(=O)O[C@@]12CO[C@@H]1C[C@H](O)[C@@]1(C)C(=O)[C@H](O)C3=C(C)[C@@H](OC(=O)[C@H](O)[C@@H](NC(=O)OC(C)(C)C)c4ccccc4)C[C@@](O)([C@@H](OC(=O)c4ccccc4)[C@H]21)C3(C)C` [docetaxel, reference compound], the “Tumor Volume Day 21” value in data set [9] (5 mg/kg docetaxel Q7Dx3 IV) is 492.3; in data set [9] (10 mg/kg docetaxel Q7Dx3 IV) it was 232.2; in data set [10] it was 103.2; in data set [11] (5 mg/kg docetaxel Q7Dx3 IV) it was 743.7; in data set [11] (10 mg/kg docetaxel Q7Dx3 IV), 882.6. Also, the “tumor growth compared to the vehicle control group” value in data set [9] (setting [14]) and in data set [12] (setting [14]) was “inhibited tumor growth” in each case. In addition, in [11] (setting [14]), the “anti-tumor responses compared to the vehicle control” value is on record as “modest anti-tumor responses”. In addition, the entries for the “Tumor Volume Day 28” value in [12] (5 mg/kg docetaxel Q7Dx3 IV) and in data set [12] (10 mg/kg docetaxel Q7Dx3 IV) were 590.4 and 195.5, respectively.
